Patent US20070203141A1 (BOEHRINGER INGELHEIM PHARMACEUTICALS, INC., priority 2001, published 2007)
“And” between values parts separate entries of the source, which are not always exact repeats. Equal entries are not always repeated.

Assays:
TNFα production [1] = assay: Mouse model of LPS-induced TNFα production; assay type: in vivo; settings: dosed orally 30 minutes prior to LPS challenge
[2] = test system: TNFα release, monkey whole blood; assay: TNFα release from LPS stimulated monkey whole blood; assay type: cell-based
Text: (§1) As a surrogate model for man, we developed an endotoxin model in the cynomolgus monkey to examine the effect of p38 MAPK inhibitors on modulating TNFα production.

[3] = Twice daily for 14 days Phase I study, pharmacokinetics; assay type: in vivo; settings: human
Description: (§2) This study was a Phase I, randomized, double-blind, placebo-controlled, multiple-dose trial to investigate the safety and pharmacokinetics of 15 or 30 mg of an orally available p38MAPK inhibitor administered twice daily compared to placebo for 14 days. Subjects were 49 healthy males, 16 per treatment group (one subject on placebo was discontinued). […] Based on preliminary analysis of this study, 9 of 48 subjects had transaminase values above the upper limit of normal (UNL), 2 in the placebo, 3 in the 15 mg dose group and 4 in 30 mg dose group. Three subjects experienced ALT rises 2-3 fold greater than UNL, one in each dose group. […] There were no relevant changes in other laboratory studies, EKGs or physical examinations.

TNFα [4] = assay: Once daily for 7 days study, ex vivo LPS induced production of TNFα in human whole blood; settings: any of the doses used (20, 50, 150 mg once daily for 7 days)
Description: (§3) This was a randomized, double-blind, placebo-controlled (2:6 ratio per dose group), multiple dose (20, 50 and 150 mg) study to assess pharmacokinetics, pharmacodynamics, safety and tolerability using a tablet formulation administered once a day for one week. Safety was determined by adverse events, laboratory tests, and physical examination. Kinetics were assessed by measuring plasma levels of drug and pharmacodynamics was assessed ex vivo by the effects of LPS induced production of TNFα, and the TNFα or fMLP induced activation state of PMN in human whole blood as measured by the ratio of Mac-1/Lselectin cell surface expression. Twenty-four healthy male volunteers (mean age 30 years, mean weight 76 kg) were studied. […] Two subjects receiving the 150 mg dose developed acne. There were no clinically significant changes in laboratory assessments except for a dose related, reversible rise in AST and ALT. […] This transaminase increase was not associated with changes in other liver function tests, nor was it associated with any liver related signs or symptoms. […] Steady-state was attained within 2 days.

[5] = Once daily for 7 days multiple dose study, pharmacokinetics; assay type: in vivo; settings: human
Description: as §3

plasma TNFα production = assay: Cynomolgus monkey endotoxin model, IV dosing just prior to LPS challenge; assay type: in vivo; settings: vs vehicle
Text: as §1

TNFα [6] = assay: Single dose rising trial (U00-1627), ex vivo TNFα inhibition; assay type: in vivo, human; settings: single dose rising trial U00-1627
Description: (§4) Thus, 4 mg would be efficacious in inhibiting TNFα production.
This discrepancy between in vivo and ex vivo and in vivo and in vitro was also observed in cynomolgus monkeys (U99-3145).

TNFα production [7] = assay: Human endotoxemia trial, LPS-induced TNFα production; assay type: in vivo; settings: for Inhibition of LPS-induced TNFα production: human, vs placebo
Text: Intravenous administration of endotoxin represents a safe, well-defined model of acute inflammation in humans. It is also an excellent tool to study the mechanisms contributing to inflammatory responses in man in vivo.
The endotoxin (LPS) was obtained from: Escherichia coli LPS (lot G; United States Pharmacopoeial Convention, Rockville, Md. USA).
Percent inhibition was obtained by calculating the percent difference between the median peak plasma pharmacodynamic endpoint concentrations of the placebo group and the maximum endpoint concentration achieved by each individual. […] [formula]

[8] = test system: TNFα release, human whole blood; assay: TNFα release from LPS stimulated human whole blood; assay type: cell-based
[9] = Once daily for 7 days multiple dose study, safety and tolerability; assay type: in vivo, human
Description: Transaminase levels peaked 2 to 4 days after the end of drug therapy on day 7 with resolution over the next 7 to 14 days.
as §3

[10] = Phase 1 single dose trial, pharmacokinetics; assay type: in vivo; settings: human, 4 mg single dose
Description: as §4

[11] = Twice daily for 14 days Phase I study, safety; assay type: in vivo, human; settings: for Subjects with transaminase values above the upper limit of normal: preliminary analysis, placebo 2
Description: as §2

TNFα production [12] = assay: Cynomolgus monkey endotoxin model, duration of action, PO chewable tablets 12 hours prior to LPS; assay type: in vivo; settings: for Inhibition of TNFα production: vs placebo; for Peak plasma level: cynomolgus monkey
Text: as §1

[13] = test system: PMN (neutrophil) activation in human whole blood; assay: Once daily for 7 days study, ex vivo TNFα or fMLP induced activation state of PMN (Mac-1/Lselectin ratio); assay type: in vivo
Description: as §3

[14] = test system: TNFα release from LPS stimulated human PBMC; assay: TNFα release from LPS stimulated human PBMC; assay type: cell-based
[15] = 150 mg once daily for 7 days, all 6 subjects

IC50 [2]: 4000 nM
AUC0-12 (mean±SD) on day 14 ([3]; 15 mg twice daily): 334 ± 145 ng·h/mL
Cmax (mean±SD) on day 14 ([3]; 15 mg twice daily): 109 ± 51 ng/mL
AUC0-12 (mean±SD) on day 14 ([3]; 30 mg twice daily): 659 ± 449 ng·h/mL
Cmax (mean±SD) on day 14 ([3]; 30 mg twice daily): 208 ± 109 ng/mL
Mean elimination half-life ([3]; 15 or 30 mg twice daily for 14 days): 7.3 h
Day 7 mean AUC0-24 ([5]; 20 mg once daily): 364 ng·h/mL
Day 7 mean Cmax ([5]; 20 mg once daily): 116 ng/mL
Day 7 mean AUC0-24 ([5]; 50 mg once daily): 1324 ng·h/mL
Day 7 mean Cmax ([5]; 50 mg once daily): 308 ng/mL
Day 7 mean AUC0-24 ([5]; 150 mg once daily): 5924 ng·h/mL
Day 7 mean Cmax ([5]; 150 mg once daily): 1108 ng/mL
Time to steady-state ([5]; once daily dosing): ≤ 2 days
EC50 calculated from ex-vivo inhibition of TNFα (TNFα [6]): 1.228 µg/mL
IC50 [8]: 800 nM
Cmax [10]: 23.8 ± 5.71 ng/mL
Structure (SMILES): Cc1ccc(-n2nc(C(C)(C)C)cc2NC(=O)Nc2ccc(OCCN3CCOCC3)c3ccccc23)cc1 [BIRB 796 BS]
ED50, inhibition of LPS-induced TNFα (TNFα production [1]): approximately 10 mg/kg
Ex vivo inhibition of TNFα (TNFα [4]): No inhibition
Inhibition of plasma TNFα production (plasma TNFα production; 0.3 mg/kg IV just prior to LPS 400 ng/kg IV): not significantly inhibited
Inhibition of plasma TNFα production (plasma TNFα production; 1 mg/kg IV just prior to LPS 400 ng/kg IV, p<0.005): 85%
Inhibition of plasma TNFα production (plasma TNFα production; 3 mg/kg IV just prior to LPS 400 ng/kg IV, p<0.005): 90%
Ex vivo inhibition of TNFα production (TNFα [6]; 50 mg): no inhibition was observed
EC50 for inhibiting TNFα production in vivo (TNFα production [7]; Emax model, plasma concentration ten minutes prior to LPS challenge): 0.02372 µg/mL
Emax (% Inhibition), TNFα (TNFα production [7]; Emax model, pre-LPS challenge plasma concentration vs percent inhibition of peak TNFα): 95% and 95.34%
Inhibition of LPS-induced TNFα production (TNFα production [7]; 50 mg orally 3 hours prior to LPS challenge): 88%
Inhibition of LPS-induced TNFα production (TNFα production [7]; 600 mg orally 3 hours prior to LPS challenge): 97%
Change in γ-GT ([9]; 150 mg daily for seven days): small increase in γ-GT
Elevations in AST and ALT ([9]; 150 mg daily for seven days): moderate elevations in AST and ALT
Tolerability ([9]; 150 mg for seven days): not considered well tolerated
Rise in ALT above the upper limit of normal [9, 15]: ≤ 3.5 fold
Rise in AST above the upper limit of normal [9, 15]: ≤ 2 fold
Tolerability ([9]; doses up to 50 mg (20 and 50 mg) daily for 7 days): well tolerated
Subjects with transaminase values above the upper limit of normal ([11]; 15 mg twice daily group (16 per group)): 3 subjects
Subjects with transaminase values above the upper limit of normal ([11]; 30 mg twice daily group (16 per group)): 4 subjects
Tolerability ([11]; doses up to 30 mg twice daily for two weeks): well tolerated
Inhibition of TNFα production (TNFα production [12]; 1 mg/kg PO 12 hours prior to IV LPS, NS): 44%
Inhibition of TNFα production (TNFα production [12]; 3 mg/kg PO 12 hours prior to IV LPS, p<0.05): 61%
Inhibition of TNFα production (TNFα production [12]; 20 mg/kg PO 12 hours prior to IV LPS, p<0.01): 84%
Peak plasma level (TNFα production [12]; 1 mg/kg PO chewable tablets): 0.003 µM
Peak plasma level (TNFα production [12]; 3 mg/kg PO chewable tablets): 0.02 µM
Peak plasma level (TNFα production [12]; 20 mg/kg PO chewable tablets): 1.4 µM
Ex vivo neutrophil activation ([13]; 4 hours post dosing): dose dependent inhibition
Ex vivo neutrophil activation ([13]; 24 hours post dosing, various dose levels): mixed pattern of neutrophil inhibition and activation
IC50 [14]: 21 nM
